The values that follow come from PubChem BioAssay AID2060614 (Molecular Pharmacology Branch, DTP, NCI, 2025).

The test system of the test is 598228-144-R-J1-PDC complex spheroids, viability. As to the kind of experiment: Anticancer human tumor 598228-144-R-J1-PDC patient-derived serous endometrial adenocarcinoma cell line growth inhibition [CLK]. The note with it: for viability, T/C: stronger effect = lower value. From the text:
A high-throughput screen of multi-cell type tumor spheroids was designed to identify active combinations of […] and targeted small molecules. Complex spheroids include a stromal component modeled by human endothelial cells (HUVEC) and fibroblasts modeled by human mesenchymal stem cells (MSCs). The concentration ranges selected for each drug and investigational agent were based upon clinically achievable concentrations if the clinical Cmax of the agent was known.
Compounds. The drugs and investigational agents: cirtuvivint (SM08502; NSC835563), CC-671 (NSC850746), vemurafenib (NSC761431), tapotoclax (NSC804041), sotorasib (NSC818433), adagrasib (NSC831453), MRTX-1133 (NSC836407), BAY2416964 (NSC825713), copanlisib (NSC816437), inavolisib (NSC800729), abemaciclib (NSC768073), osimertinib (NSC779217), entinostat (NSC756642), eltanexor (KPT-8602, NSC794443), venetoclax (NSC766270), ceralasertib (NSC777638), bortezomib (NSC756655), olaparib (NSC753686), talazoparib (NSC767125), alisertib (NSC759677), peposertib (NSC802822), gemcitabine (NSC613327), 5-fluorouracil (NSC19893), SN-38 (NSC673596), oxaliplatin (NSC266046), paclitaxel (NSC125973), and doxorubicin (NSC123127), were obtained from the National Cancer Institute (NCI) Developmental Therapeutics Program Chemical Repository. The FDA-approved anticancer drug set is available from the Developmental Therapeutics Program at https://dtp.cancer.gov/organization/dscb/obtaining/available plates.htm. […] The stock solutions were prepared in dimethyl sulfoxide (DMSO, Sigma-Aldrich, St. Louis, MO, cat. D2650), except for the platinum complexes which were prepared in saline (Quality Biological, Gaithersburg, MD, cat. 114-055-101), at 800-fold the tested concentration and stored at -70 degrees C prior to their use. All drugs and investigational agents were tested over a range starting from a high concentration at or near the clinical Cmax and decreasing in half-log increments. If the clinical Cmax for an agent had not been determined, the highest concentration tested was 10 microM.
Cell Culture. All cells were maintained in an incubator at 37 degrees C and 5% CO2 with 95% humidity. The PDC lines were cultured according to standard operating procedures established by the NCI PDMR. Briefly, all PDCs were thawed and cultured in Matrigel-coated flasks prepared with a working solution of 1X Ham's F-12 nutrient mix, without supplementation (Invitrogen, Waltham, MA, cat. 11765054), 100 U/mL penicillin-streptomycin (Invitrogen, cat. 15140122), and 2.5% Matrigel (Corning Inc., Corning, NY, cat. 354248) for the first three passages. The 947758-054-R-J2-PDC line was cultured in 6B/Colon 1A media, which includes advanced DMEM/F-12 (Thermo Fisher Scientific, cat. 12634028), 10 mM HEPES (Thermo Fisher Scientific, cat. 15630080), 1X GlutaMAX supplement (Thermo Fisher Scientific, cat. 35050061), 0.1 mg/mL primocin (InvivoGen, cat. ant-pm-2), 10% defined fetal bovine serum, heat inactivated (HyClone Laboratories Inc., cat. SH30070.03HI), 1.25 mM N-Acetyl-L-cysteine (Sigma-Aldrich, cat. A9165), 10 mM nicotinamide (Sigma-Aldrich, cat. N0636), 1X B-27 supplement (Thermo Fisher Scientific, cat. 17504044), 1X N-2 supplement (Thermo Fisher Scientific, cat. 17502048), and 10 microM Y-27632 dihydrochloride (Tocris Bioscience, cat. 1254). The 876862-298-R-J1-PDC was cultured in 6E media, which includes all 6B/Colon 1A media components plus 50% L-WRN conditioned media (ATCC, cat. CRL-3276), 50 ng/mL recombinant human EGF recombinant protein (hEGF; Thermo Fisher Scientific, cat. PHG0311), 10 ng/mL recombinant human fibroblast growth factor 10 (hGFG-10; PeproTech, cat. 100-26), 1 ng/mL recombinant human fibroblast growth factor 2 (hFGF-2; PeproTech, cat. 100-18B), and 1 µM prostaglandin E2 (PGE2; Tocris, cat. 2296). The 227483-062-R1-J1-PDC line was cultured in Panc media, containing all 6E components except hFGF-2, with the addition of 500 nM SB-431542 (Selleckchem, cat. S1067) and 10 nM gastrin (Tocris, cat. 3006). […]

Several values for one entry are separate records, joined by “and”; a condition that tells them apart may be missing. Equal values may be shown once.
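Also: spheroids exposed to compounds for seven days before readout.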
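For viability, T/C in this document: 100% = DMSO vehicle control wells.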

`C=CC(=O)Nc1cc(Nc2nccc(-c3cn(C)c4ccccc34)n2)c(OC)cc1N(C)CCN(C)C` + CNC(=O)c1ccc(Nc2nc(OC3CCCC3)c3c(-c4ccc5nc(C)oc5c4)c[nH]c3n2)c(OC)c1: the IC50 (curve of first compound, second compound 0.0316 µM) was more than 300 nM; the IC50 (curve of first compound, second compound 0.1 µM) is more than 300 nM; the IC50 (curve of first compound, second compound 0.316 µM) is more than 300 nM; the IC50 (curve of first compound, second compound 1 µM) is more than 300 nM; the half-inhibitory concentration (IC50) (curve of first compound, second compound 3.16 µM) is more than 300 nM; the IC50 (curve of first compound, second compound 10 µM) was more than 300 nM. For the same compound, the viability, T/C runs as follows: (second compound 0.0316 µM, first compound 0.000949 µM) 124%; (second compound 0.0316 µM, first compound 0.003 µM) 113%; (second compound 0.0316 µM, first compound 0.00949 µM) 107%; (second compound 0.0316 µM, first compound 0.03 µM) 115%; (second compound 0.0316 µM, first compound 0.0949 µM) 101%; (second compound 0.0316 µM, first compound 0.3 µM) 105%. Moreover, the viability, T/C reads like this: (second compound 0.1 µM, first compound 0.000949 µM) 120%; (second compound 0.1 µM, first compound 0.003 µM) 103%; (second compound 0.1 µM, first compound 0.00949 µM) 104%; (second compound 0.1 µM, first compound 0.03 µM) 104%; (second compound 0.1 µM, first compound 0.0949 µM) 103%; (second compound 0.1 µM, first compound 0.3 µM) 78.3%. For the same compound, the viability, T/C by setting is: (second compound 0.316 µM, first compound 0.000949 µM) 112%; (second compound 0.316 µM, first compound 0.003 µM) 109%; (second compound 0.316 µM, first compound 0.00949 µM) 120%; (second compound 0.316 µM, first compound 0.03 µM) 93.5%; (second compound 0.316 µM, first compound 0.0949 µM) 96.5%; (second compound 0.316 µM, first compound 0.3 µM) 77.7%. Further, the viability, T/C reads like this: (second compound 1 µM, first compound 0.000949 µM) 104%; (second compound 1 µM, first compound 0.003 µM) 90.3%; (second compound 1 µM, first compound 0.00949 µM) 90.5%; (second compound 1 µM, first compound 0.03 µM) 99%; (second compound 1 µM, first compound 0.0949 µM) 91.2%; (second compound 1 µM, first compound 0.3 µM) 94.1%. For the same compound, the viability, T/C is, setting by setting: (second compound 3.16 µM, first compound 0.000949 µM) 101%; (second compound 3.16 µM, first compound 0.003 µM) 102%; (second compound 3.16 µM, first compound 0.00949 µM) 80.9%; (second compound 3.16 µM, first compound 0.03 µM) 87.6%; (second compound 3.16 µM, first compound 0.0949 µM) 82.7%; (second compound 3.16 µM, first compound 0.3 µM) 62.3%. For the same compound, the viability, T/C was 86.5% (second compound 10 µM, first compound 0.000949 µM); 86.4% (second compound 10 µM, first compound 0.003 µM); 86.3% (second compound 10 µM, first compound 0.00949 µM); 73.1% (second compound 10 µM, first compound 0.03 µM); 77.5% (second compound 10 µM, first compound 0.0949 µM); 60.7% (second compound 10 µM, first compound 0.3 µM).

For `CC(CO)NC(=O)c1cc(-c2ccc(Cl)cc2)nn(-c2cnn(C)c2)c1=O` (stereo unspecified), the viability, T/C reads like this: (compound 0.0316 µM) 92.9% and 110%; (compound 0.1 µM) 89.4% and 109%; (compound 0.316 µM) 98.2% and 116%; (compound 1 µM) 98.4% and 106%; (compound 3.16 µM) 76.6% and 111%; (compound 10 µM) 89.9% and 73.9%. For the setting “curve of compound”, the IC50 was more than 10000 nM.

As for `COC1C=CCC(C)C(C)S(=O)(=O)NC(=O)c2ccc3c(c2)N(CC2CCC21)CC1(CCCc2cc(Cl)ccc21)CO3` (stereo unspecified), the viability, T/C by setting is: (compound 0.0316 µM) 106% and 108%; (compound 0.1 µM) 80.2% and 85.4%; (compound 0.316 µM) 61% and 66.5%; (compound 1 µM) 55.6% and 58.4%; (compound 3.16 µM) 56.3% and 56.4%; (compound 10 µM) 34.4% and 20.1%. The IC50 (curve of compound) was 1870 nM and 1810 nM.

One may read the IC50 as the midpoint of a concentration-inhibition curve. One may read the viability, T/C as the ratio of treated to control.
